Test results: patent US20120128754A1, “TREATMENT OF EYE DISCOMFORT BY TOPICAL ADMINISTRATION OF A COOLING AGENT TO THE EXTERNAL SURFACE OF THE EYELID” (priority 2009, published 2012)
≈ marks a conversion by molar mass, not a printed value.

Assays:
closed eyelids [1] = assay: Eye wipe test: cooling sensations after wiping test solution over closed eyelids; type: in vivo, human; conditions: for quality of cooling sensation: CPS-369 1 and 2 mg/mL, CPS-160 2 mg/mL, CPS-030 1, 2, 4, 8 mg/mL; for cooling potency relative to CPS-030: in vivo
Description: The general procedure for testing was to weigh an active ingredient and to disperse it within a saline solution (i.e., Bausch & Lomb, Sensitive Eyes Plus Saline Solution) at stock concentrations of 10 to 20 mg/mL. Test solutions were further diluted with isotonic saline. For single assays, a 1 mL scaled pipette was used to dispense 0.8 to 1 mL of test solution onto a sterile 2″×2″ (5 cm×5 cm) pad, made of rayon-polyester formed fabric (Walgreens Sterile Gauze Pads) weighing on average 285±9 mg.
In the next trials, the wet pad was wiped twice over the closed eyelids of each eye from the medial to the lateral canthus. By subtraction, the loss of weight of the pad averaged 32±1 mg. Thus, each eye received ˜16 μL of the test solution per eye. For a 1 mg/mL solution this was equivalent to ˜16 μg per eye.
The presence of cooling sensations was recorded at 2 and 5 minutes after wiping and at 5 minute intervals thereafter. The intensity of the subjective eye sensation was rated as 0, 1, 2 or 3 with: 0 as no change; 1 as slight coolness or cold; 2 as clear-cut signal of coolness or cold; and 3 as comfortable and soothing sensations of cooling or cold. Recording was continued until two successive zeroes were obtained. The data were plotted using SigmaPlot™ (Systat Software, Point Richmond Calif.).
The results for compound CPS-030 are illustrated in FIG. 1, and reflect the averaged values of 6 to 8 separate trials in the same individual.
FIG. 1 is a graph of cooling intensity versus hours after application of CPS-030 with eye wipes for four dosages (128 μg, 64 μg, 32 μg, and 16 μg; per eye), and illustrates the dose-response data for CPS-030 on cooling sensations after application with eye wipes. The dose reported in μg is per eye, based on solutions of 1.0, 2.0, 4.0 and 8.0 mg of CPS-030 per mL of saline, applied in a volume of 16 μL per eye. […] Confirmatory trials of cooling action for CPS-030 were obtained in 4 individuals.

[2] = Stability of test solutions stored at room temperature (retention of cooling activity); type: physicochemical; conditions: saline solution
Description: (§1) 2-[((1R,2S,5R)-2-isopropyl-5-methyl-cyclohexanecarbonyl)-amino]-acetic acid 3-hydroxypropyl ester, referred to as CPS-160 (see, e.g., Wei, 2008) was synthesized and tested. […] Thus, CPS-160 was not considered to be an optimal cooling agent for practicing the invention.
(§2) It has a good safety profile because the expected hydrolysis products are the carboxylic acid and glycerol.

[3] = Observed solubility in vehicle; type: physicochemical; conditions: for solubility in 1 or 2% ethanol-water solution: higher concentrations not achievable without more ethanol
Description: Wei, 2008 describes delivery of cooling compounds to the skin using a towelette. The wiping of the towelette across skin results in delivery of dermatologically active ingredient(s), meaning that the skin is substantially medicated. […] An ethanol/water mixture with an ethanol concentration of about 5 wt % is required in order to dissolve enough of these compounds to provide a sufficient degree of cooling to relieve eye discomfort; however, at this concentration the ethanol is irritating to the eye surface.
as §1, §2
Thus, water solubility, as embodied in CPS-030, is a key factor for an ideal API.

closed eyelids [4] = assay: Case reports: eye wipe in subjects with eye strain or dry eyes syndrome; type: in vivo, human; conditions: person
Description: A person routinely spent about 12 hour each day in front of a computer monitor and developed headaches and blurred vision. A visit to a general physician gave a diagnosis of eye strain, but the addiction to the computer monitor continued. The subject found some relief by putting a cold wet towel on their face, but the relief was only temporary. They volunteered to test an eye wipe containing 0.8 mL of a 4 mg/mL solution of CPS-030 and was given instructions on how to wipe the solution onto the eyelids with the eyes closed. […] During this time, the subject watched a basketball playoff game on television and noted that they could clearly distinguish scores on the 46 inch (117 cm) HDTV monitor which were previously indecipherable. For example, they could clearly see scores of 65 vs. 66, and of 98 vs. 99. […] The subject continues to use the eye wipes as an aid to their vision on an “as needed basis”, and the improved visual acuity is a reproducible event.
Their principal complaints were of dryness, itch, and discomfort at the corner of their eyes and blurred vision. These symptoms were present on a daily basis at various levels of intensity. […] It was not clear if they adhered to a strict regimen of self-administration, but they complained of the eye drops running down their cheeks and the expense of the medications. When the symptoms were severe, the subject found some relief by wetting their eyes with cold tap water, but the relief was only temporary. They volunteered to test an eye wipe containing 0.8 mL of a 4 mg/mL solution of CPS-030, and was given instructions on how to apply the solution onto the eyelids with the eyes shut.

closed eyelids [5] = assay: Eye wipe test: cooling sensations after wiping test solution over closed eyelids; type: in vivo, human; conditions: for sensations accompanying cooling: 1 mg/mL in 1 or 2% ethanol-water, closed eyelids
[6] = dry eyes syndrome, eye wipe 0.8 mL of 4 mg/mL
[7] = eye strain, eye wipe 0.8 mL of 4 mg/mL

CC(C)[C@@H]1CC[C@@H](C)C[C@H]1C(=O)NCC(=O)OCCCO [CPS-160, 2-[((1R,2S,5R)-2-isopropyl-5-methyl-cyclohexanecarbonyl)-amino]-acetic acid 3-hydroxypropyl ester]
duration of cooling (closed eyelids [1]; 2 mg/mL in saline, eye wipe): approximately 0.6 hours | quality of cooling sensation (closed eyelids [1]; saline, eye wipe): Robust and refreshing cooling | stability of solution stored at room temperature [2]: not stable and became inactive after 2 days | solubility in saline solution [3]: solubilized in saline solution

CC(C)[C@@H]1CC[C@@H](C)C[C@H]1C(=O)OCC(O)CO (stereo partly drawn) [Compound 1, (1R,2S,5R)-2-isopropyl-5-methyl-cyclohexanecarboxylic acid 2,3-dihydroxy-propyl ester]
sensations accompanying cooling (closed eyelids [1]; 32 μg, 64 μg and 128 μg per eye, saline, eye wipe): cooling was accompanied by a sensation of “wetness” and increased visual acuity | duration of eye refreshment (closed eyelids [1]; 4.0 mg/mL in saline, 16 μL per eye, sterile pad): approximately 1 hour | sensations of sting, irritation or pain (closed eyelids [1]; all dosages tested (16-128 μg per eye)): no sensations of sting, irritation, or pain | effective dose via eye wipe (closed eyelids [1]; delivered via a 2.0 mg/mL solution in an eye wipe): ~32 μg/eye | quality of cooling sensation (closed eyelids [1]; saline, eye wipe): Robust and refreshing cooling | stability of solution stored at room temperature [2]: retained biological potency when stored at room temperature for at least three weeks | symptomatic relief on as-needed use (closed eyelids [4]; dry eyes syndrome, as needed for three months): expressed satisfaction at the relief of eye discomfort | duration of cooling and soothing sensations (closed eyelids [4]; [6]): at least 1 hour | onset of cooling and soothing sensations (closed eyelids [4]; [6]): Within two minutes | sensations reported (closed eyelids [4]; [6]): sensation of “wetness”, and a feeling of soothing and comfort | duration of cooling and soothing sensations (closed eyelids [4]; [7]): at least two hours | effect on visual acuity (closed eyelids [4]; [7]): increase in visual acuity | onset of cooling and soothing sensations (closed eyelids [4]; [7]): Within two minutes | solubility in saline solution [3]: miscible and solubilized in saline solution

CC(C)[C@@H]1CC[C@@H](C)C[C@H]1C(=O)OCCO [Compound 3]
adverse sensations (closed eyelids [1]; higher two doses of 32 to 160 μg/eye range): brief period of warmth sensations on the eye surface and increased lachrymation | cooling potency relative to CPS-030 (closed eyelids [1]): about half the potency of CPS-030

COC(=O)CNC(=O)[C@@H]1C[C@H](C)CC[C@H]1C(C)C [Compound 10, reference compound]
cooling potency relative to CPS-030 (closed eyelids [1]): more potent cooling activity than CPS-030 | solubility in 1 or 2% ethanol-water solution [3]: 1000 µg/mL (≈ 3.92 mM) | sensations accompanying cooling (closed eyelids [5]): without any sensations of wetness or increased visual acuity

CC(C)[C@@H]1CC[C@@H](C)C[C@H]1C(=O)OCCOCCO [Compound 2]
duration of cooling (closed eyelids [1]; 10 mg/mL, eye wipe): less than 30 minutes | cooling intensity (closed eyelids [1]; 10 mg/mL, eye wipe, scale 0-3): < 2 coolness units

COC(=O)[C@@H](C)NC(=O)[C@@H]1C[C@H](C)CC[C@H]1C(C)C [Compound 9]
cooling potency relative to CPS-030 (closed eyelids [1]): more potent cooling activity than CPS-030 | solubility in 1 or 2% ethanol-water solution [3]: 1000 µg/mL (≈ 3.71 mM) | sensations accompanying cooling (closed eyelids [5]): without any sensations of wetness or increased visual acuity

CCOC(=O)[C@@H](C)NC(=O)[C@@H]1C[C@H](C)CC[C@H]1C(C)C [Compound 12, (R)-2-[((1R,2S,5R)-2-isopropyl-5-methyl-cyclohexanecarbonyl)-amino]-propionic acid ethyl ester]
duration of cooling (closed eyelids [1]; 1 mg/mL dispersed in saline, eye wipe): approximately 1.5 hours | duration of cooling (closed eyelids [1]; 2 mg/mL in saline, eye wipe): ~2.5 h | quality of cooling sensation (closed eyelids [1]; saline, eye wipe): Robust and refreshing cooling | side-effect when eyelids get wet after testing (closed eyelids [1]; solid dispersed in saline, 1 and 2 mg/mL): the cooling sensations returned, sometimes with an intensity that could cause discomfort | cooling sensation (closed eyelids [5]; 30 mg in 0.1 mL ethanol + 7.4 mL glycerol + 7.5 mL water): Mild and persistent cooling
